ChEMBL document CHEMBL1127056, “3-(Alkylamino)-4H-pyrido[4,3-e]-1,2,4-thiadiazine 1,1-dioxides as powerful inhibitors of insulin release from rat pancreatic B-cells: a new class of potassium channel openers?” (1993)

What was measured:
Format in all cases: functional
[1] = organism: Rattus norvegicus; test: Inhibition of insulin release from rat pancreatic islets incubated in the presence of glucose ([…]) at concentration of 1 uM
[2] = organism: Rattus norvegicus; test: Inhibition of insulin release from rat pancreatic islets incubated in the presence of glucose ([…]) at concentration of 10 uM
[3] = organism: Rattus norvegicus; test: Inhibition of insulin release from rat pancreatic islets incubated in the presence of glucose ([…]) at concentration of 100 uM
[4] = organism: Rattus norvegicus; test: Inhibition of insulin release from rat pancreatic islets incubated in the presence of glucose ([…]) at concentration of 50 uM
[5] = organism: Rattus norvegicus; test: Inhibition of insulin release from rat pancreatic islets incubated in the presence of glucose ([…]) at concentration of 500 uM

Row | SMILES | Secretion [1] [%] | Secretion [2] [%] | Secretion [3] [%] | Secretion [4] [%] | Secretion [5] [%]
1 | CC1=Nc2ccc(Cl)cc2S(=O)(=O)N1 [DIAZOXIDE] | 78.9 | 70 | 14 | 28.8 | 8.5
2 | CC(C)C(C)NC1=NS(=O)(=O)c2cnccc2N1 (configuration not stated) | 70.5 | 13.7 | 8.8 | 8.6 | 8.4
3 | O=S1(=O)N=C(NN2CCOCC2)Nc2ccncc21 | – | – | – | 94.8 | –
4 | CCC(C)NC1=NS(=O)(=O)c2cnccc2N1 (configuration not stated) | 97.8 | 49 | 7.1 | 9.4 | 9.4
5 | CCCNC1=NS(=O)(=O)c2cnccc2N1 | 97.1 | 87.3 | 21.9 | 57.7 | 9
6 | O=S1(=O)N=C(NC2CCCCC2)Nc2ccncc21 | 74.4 | 64.4 | 18.4 | 40.5 | 6.2
7 | O=S1(=O)N=C(NC2CCCC2)Nc2ccncc21 | 82.8 | 71.1 | 9.2 | 31.5 | 4.4
8 | CCCCNC1=NS(=O)(=O)c2cnccc2N1 | 83.7 | 82 | 32.5 | 38.6 | 9
9 | CC(C)C(C)NC1=NS(=O)(=O)c2cc(Cl)ccc2N1 (configuration not stated) | 88.9 | 62.7 | 6.5 | 11 | 4.6
10 | CC(C)CNC1=NS(=O)(=O)c2cnccc2N1 | 84.2 | 71.8 | 10.2 | 23.4 | 9.7
11 | CC(C)NC1=NS(=O)(=O)c2cnccc2N1 | 110.3 | 55.3 | 18.4 | 42.5 | 8.8
12 | NC1=NS(=O)(=O)c2cnccc2N1 | – | – | – | 104.1 | –
